Data: US9556139B2, “6-substituted phenoxychroman carboxylic acid derivatives” (Array BioPharma Inc., priority 2008, dated 2017)

target: human DP2 (Homo sapiens (Human), UniProt Q9Y5Y4); test: DP-2 Binding Inhibition Assay (3H-PGD2 binding to membranes of K562 cells expressing DP2); details: read-out: EC50 (Nm) 1% HSA; inhibition of 3H-PGD2 binding, 1% HSA
Outline: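 Membranes from K562 stably expressing DP2, incubated 60 min at room temperature with ³H-PGD2 and compound in Tris pH 7.4 buffer with 0.1% BSA, 1% HSA or 4% HSA; filtration read-out. Nonspecific binding: 1 μM unlabeled PGD2 or 5 μM known antagonist. EC50 from 4-parameter logistic fit.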

Chain of human DP2 (Q9Y5Y4 whole entry): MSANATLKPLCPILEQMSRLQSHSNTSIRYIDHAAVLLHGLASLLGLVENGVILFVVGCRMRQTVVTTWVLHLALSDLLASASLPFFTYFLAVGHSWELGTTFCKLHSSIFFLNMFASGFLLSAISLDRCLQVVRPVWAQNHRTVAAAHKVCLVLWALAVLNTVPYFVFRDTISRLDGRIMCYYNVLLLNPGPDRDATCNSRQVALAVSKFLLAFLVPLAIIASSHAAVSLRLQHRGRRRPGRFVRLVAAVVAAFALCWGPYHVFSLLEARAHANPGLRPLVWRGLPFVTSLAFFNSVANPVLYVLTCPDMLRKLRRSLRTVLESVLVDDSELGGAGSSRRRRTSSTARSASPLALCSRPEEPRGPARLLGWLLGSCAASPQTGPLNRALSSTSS

| SMILES | EC50 |
| --- | --- |
| Cc1cc(C(=O)NCCc2ccc(Cl)cc2)ccc1Oc1cc2c(cc1C#N)C(C(=O)O)CCO2 (centres unmarked) [Example 129, 7-(4-(4-Chlorophenethylcarbamoyl)-2-methylphenoxy)-6-cyanochroman-4-carboxylic acid] | 21.9 nM |
| C[C@H](CNC(=O)c1ccc(Oc2cc3c(cc2C#N)C(C(=O)O)CCO3)cc1)c1ccccc1 (stereo partly drawn) [Example 131, 6-Cyano-7-(4-((S)-2-phenylpropylcarbamoyl)phenoxy)chroman-4-carboxylic acid] | 59.3 nM |
| CC(Cc1ccc(Cl)cc1)NC(=O)c1ccc(Oc2cc3c(cc2C#N)C(C(=O)O)CCO3)cc1 (centres unmarked) [Example 132, 7-(4-(1-(4-Chlorophenyl)propan-2-ylcarbamoyl)phenoxy)-6-cyanochroman-4-carboxylic acid] | 37.4 nM |

Second part, the compound after the results:

| EC50 | SMILES |
| --- | --- |
| 108 nM | O=C(NCCc1ccc(Cl)cc1)c1ccc(Oc2ccc3c(c2)OCCC3C(=O)O)cc1 (centres unmarked) [Example 128, 7-(4-(4-chlorophenyethylcarbamoyl)phenoxy)chroman-4-carboxylic acid] |
| 25.7 nM | C[C@@H](CNC(=O)c1ccc(Oc2cc3c(cc2C#N)C(C(=O)O)CCO3)cc1)c1ccccc1 (stereo partly drawn) [Example 130, 6-Cyano-7-(4-((R)-2-phenylpropylcarbamoyl)phenoxy)chroman-4-carboxylic acid] |

same assay, conditions: read-out: EC50 (nM) 4% HSA; inhibition of 3H-PGD2 binding, 4% HSA

| SMILES | EC50 |
| --- | --- |
| Cc1ccc(SCCNC(=O)c2ccc(Oc3cc4c(cc3Cl)C(C(=O)O)CCO4)cc2)cc1 (centres unmarked) [Example 112, Sodium 6-chloro-7-(4-(2-(p-tolylthio)ethylcarbamoyl)phenoxy)chroman-4-carboxylate] | 4190 nM |
| O=C(NCCSc1ccc(Cl)cc1)c1ccc(Oc2cc3c(cc2Cl)C(C(=O)O)CCO3)cc1 (centres unmarked) [Example 113, Sodium 6-chloro-7-(4-(2-(4-chlorophenylthio)ethylcarbamoyl)phenoxy)chroman-4-carboxylate] | 2380 nM |
| O=C(NCCOc1ccccc1Cl)c1ccc(Oc2cc3c(cc2Cl)C(C(=O)O)CCO3)cc1 (centres unmarked) [Example 115, Sodium 6-chloro-7-(4-(2-(2-chlorophenoxyl)ethylcarbamoyl)phenoxy)chroman-4-carboxylate] | 2440 nM |
| CC(C)(C)Oc1ccccc1CCNC(=O)c1ccc(Oc2cc3c(cc2Cl)C(C(=O)O)CCO3)cc1 (centres unmarked) [Example 116, Sodium 7-(4-(2-tert-butoxyphenethylcarbamoyl)phenoxy)-6-chlorochroman-4-carboxylate] | 304 nM |
| CSc1ccc(CCNC(=O)c2ccc(Oc3cc4c(cc3Cl)C(C(=O)O)CCO4)cc2)cc1 (centres unmarked) [Example 118, Sodium 6-chloro-7-(4-(4-(methylthio)phenethylcarbamoyl)phenoxy)chroman-4-carboxylate] | 426 nM |
| O=C(NC1CCN(c2cccc(Cl)c2)C1)c1ccc(Oc2cc3c(cc2Cl)C(C(=O)O)CCO3)cc1 (centres unmarked) [Example 119, Sodium 6-chloro-7-(4-(1-(3-chlorophenyl)pyrrolidin-3-ylcarbamoyl)phenoxy)chroman-4-carboxylate] | 206 nM |
| O=C(NC1CCN(c2cccc(Cl)c2)CC1)c1ccc(Oc2cc3c(cc2Cl)C(C(=O)O)CCO3)cc1 (centres unmarked) [Example 120, Sodium 6-chloro-7-(4-(1-(3-chlorophenyl)piperidin-4-ylcarbamoyl)phenoxy)chroman-4-carboxylate] | 371 nM |
| O=C(NC1CN(c2cccc(C(F)(F)F)c2)C1)c1ccc(Oc2cc3c(cc2Cl)C(C(=O)O)CCO3)cc1 (centres unmarked) [Example 121, Sodium 6-chloro-7-(4-(1-(3-(trifluoromethyl)phenyl)azetidin-3-ylcarbamoyl)phenoxy)chroman-4-carboxylate] | 4320 nM |
| O=C(NC1CCN(c2ccc(Cl)cc2Cl)CC1)c1ccc(Oc2cc3c(cc2Cl)C(C(=O)O)CCO3)cc1 (centres unmarked) [Example 124, Sodium 6-chloro-7-(4-(1-(2,4-dichlorophenyl)piperidin-4-ylcarbamoyl)phenoxy)chroman-4-carboxylate] | 841 nM |
| O=C(N[C@H]1CCCN(c2cccc(Cl)c2)C1)c1ccc(Oc2cc3c(cc2Cl)C(C(=O)O)CCO3)cc1 (stereo partly drawn) [Example 125, Sodium 6-chloro-7-(4-((S)-1-(3-chlorophenyl)piperidin-3-ylcarbamoyl)phenoxy)chroman-4-carboxylate] | 421 nM |
| COc1cc(CCNC(=O)c2ccc(Oc3cc4c(cc3C#N)C(C(=O)O)CCO4)cc2)ccc1Cl (centres unmarked) [Example 133, 7-(4-(4-Chloro-3-methoxyphenethylcarbamoyl)phenoxy)-6-cyanochroman-4-carboxylic acid] | 625 nM |
| CC(C)(C)c1cccc(NC(=O)c2ccc(Oc3cc4c(cc3C#N)C(C(=O)O)CCO4)cc2)c1 (centres unmarked) [Example 134, 7-(4-(3-tert-Butylphenylcarbamoyl)phenoxy)-6-cyanochroman-4-carboxylic acid] | 112 nM |
| COc1ccc(CCNC(=O)c2ccc(Oc3cc4c(cc3Cl)C(C(=O)O)CCO4)cc2)cc1 (centres unmarked) [Example 140, Sodium 6-chloro-7-(4-(4-methoxyphenethylcarbamoyl)phenoxy)chroman-4-carboxylate] | 498 nM |
| COc1ccc(CCNC(=O)c2ccc(Oc3cc4c(cc3Cl)C(C(=O)O)CCO4)cc2)cc1OC (centres unmarked) [Example 141, Sodium 6-chloro-7-(4-(3,4-dimethoxyphenethylcarbamoyl)phenoxy)chroman-4-carboxylate] | 1000 nM |
| COc1cccc(CCNC(=O)c2ccc(Oc3cc4c(cc3Cl)C(C(=O)O)CCO4)cc2)c1 (centres unmarked) [Example 143, Sodium 6-chloro-7-(4-(3-methoxyphenethylcarbamoyl)phenoxy)chroman-4-carboxylate] | 1010 nM |
| O=C(NCCc1cccc(F)c1)c1ccc(Oc2cc3c(cc2Cl)C(C(=O)O)CCO3)cc1 (centres unmarked) [Example 145, Sodium 6-chloro-7-(4-(3-fluorophenethylcarbamoyl)phenoxy)chroman-4-carboxylate] | 655 nM |
| O=C(NCCc1ccc(SC(F)(F)F)cc1)c1ccc(Oc2cc3c(cc2Cl)C(C(=O)O)CCO3)cc1 (centres unmarked) [Example 147, Sodium 6-chloro-7-(4-(4-(trifluoromethylthio)phenethylcarbamoyl)phenoxy)chroman-4-carboxylate] | 240 nM |
| O=C(NCCc1cc(Cl)cc(Cl)c1)c1ccc(Oc2cc3c(cc2Cl)C(C(=O)O)CCO3)cc1 (centres unmarked) [Example 148, Sodium 6-chloro-7-(4-(3,5-dichlorophenethylcarbamoyl)phenoxy)chroman-4-carboxylate] | 196 nM |
| O=C(NCCc1cccc(Cl)c1)c1ccc(Oc2cc3c(cc2Cl)C(C(=O)O)CCO3)cc1 (centres unmarked) [Example 150, Sodium 6-chloro-7-(4-(3-chlorophenethylcarbamoyl)phenoxy)chroman-4-carboxylate] | 341 nM |

The remaining lines, values ahead:

| EC50 | SMILES |
| --- | --- |
| 174 nM | O=C(NCC1Cc2ccccc2C1)c1ccc(Oc2cc3c(cc2Cl)C(C(=O)O)CCO3)cc1 (centres unmarked) [Example 111, Sodium 6-chloro-7-(4-((2,3-dihydro-1H-inden-2-yl)methylcarbamoyl)phenoxy)chroman-4-carboxylate] |
| 91 nM | CCOc1ccccc1CCNC(=O)c1ccc(Oc2cc3c(cc2Cl)C(C(=O)O)CCO3)cc1 (centres unmarked) [Example 114, Sodium 6-chloro-7-(4-(2-ethoxyphenethylcarbamoyl)phenoxy)chroman-4-carboxylate] |
| 246 nM | CSc1ccccc1CCNC(=O)c1ccc(Oc2cc3c(cc2Cl)C(C(=O)O)CCO3)cc1 (centres unmarked) [Example 117, Sodium 6-chloro-7-(4-(2-(methylthio)phenethylcarbamoyl)phenoxy)chroman-4-carboxylate] |
| 242 nM | O=C(NC1CCN(c2cccc(C(F)(F)F)c2)C1)c1ccc(Oc2cc3c(cc2Cl)C(C(=O)O)CCO3)cc1 (centres unmarked) [Example 122, Sodium 6-chloro-7-(4-(1-(3-(trifluoromethyl)phenyl)pyrrolidin-3-ylcarbamoyl)phenoxy)chroman-4-carboxylate] |
| 259 nM | O=C(NC1CCN(c2cccc(C(F)(F)F)c2)CC1)c1ccc(Oc2cc3c(cc2Cl)C(C(=O)O)CCO3)cc1 (centres unmarked) [Example 123, Sodium 6-chloro-7-(4-(1-(3-(trifluoromethyl)phenyl)piperidin-4-ylcarbamoyl)phenoxy)chroman-4-carboxylate] |
| 179 nM | N#Cc1cc2c(cc1Oc1ccc(C(=O)NCC3Cc4ccccc4C3)cc1)OCCC2C(=O)O (centres unmarked) [Example 126, 6-Cyano-7-(4-((2,3-dihydro-1H-inden-2-yl)methylcarbamoyl)phenoxy)chroman-4-carboxylic acid] |
| 270 nM | CC(C)(C)C1CCC(NC(=O)c2ccc(Oc3cc4c(cc3C#N)C(C(=O)O)CCO4)cc2)CC1 (centres unmarked) [Example 127, 7-(4-(4-tert-Butylcyclohexylcarbamoyl)phenoxy)-6-cyanochroman-4-carboxylic acid] |
| 980 nM | O=C(NCCc1ccc(Cl)cc1)c1ccc(Oc2ccc3c(c2)OCCC3C(=O)O)cc1 (centres unmarked) [Example 128, 7-(4-(4-chlorophenyethylcarbamoyl)phenoxy)chroman-4-carboxylic acid] |
| 205 nM | CC(C)Oc1cccc(NC(=O)c2ccc(Oc3cc4c(cc3C#N)C(C(=O)O)CCO4)cc2)c1 (centres unmarked) [Example 135, 6-Cyano-7-(4-(3-isopropoxyphenylcarbamoyl)phenoxy)chroman-4-carboxylic acid] |
| 239 nM | O=C(NCCc1ccc(Cl)c(Cl)c1)c1ccc(Oc2cc3c(cc2Cl)C(C(=O)O)CCO3)cc1 (centres unmarked) [Example 138, Sodium 6-chloro-7-(4-(3,4-dichlorophenethylcarbamoyl)phenoxy)chroman-4-carboxylate] |
| 226 nM | O=C(NCCc1cccc(Cl)c1Cl)c1ccc(Oc2cc3c(cc2Cl)C(C(=O)O)CCO3)cc1 (centres unmarked) [Example 139, Sodium 6-chloro-7-(4-(2,3-dichlorophenethylcarbamoyl)phenoxy)chroman-4-carboxylate] |
| 140 nM | CC(C)(C)c1ccc(CCNC(=O)c2ccc(Oc3cc4c(cc3Cl)C(C(=O)O)CCO4)cc2)cc1 (centres unmarked) [Example 142, Sodium 7-(4-(4-tert-butylphenethylcarbamoyl)phenoxy)-6-chlorochroman-4-carboxylate] |
| 608 nM | Cc1cccc(CCNC(=O)c2ccc(Oc3cc4c(cc3Cl)C(C(=O)O)CCO4)cc2)c1 (centres unmarked) [Example 146, Sodium 6-chloro-7-(4-(3-methylphenethylcarbamoyl)phenoxy)chroman-4-carboxylate] |
| 280 nM | O=C(NCCc1cccc(Oc2ccccc2)c1)c1ccc(Oc2cc3c(cc2Cl)C(C(=O)O)CCO3)cc1 (centres unmarked) [Example 149, Sodium 6-chloro-7-(4-(3-phenoxyphenethylcarbamoyl)phenoxy)chroman-4-carboxylate] |
